Measurements published in ChEMBL document CHEMBL4376848, “Synthesis and discovery of triazolo-pyridazine-6-yl-substituted piperazines as effective anti-diabetic drugs; evaluated over dipeptidyl peptidase-4 inhibition mechanism and insulinotropic activities” (Eur J Med Chem, 2020).
Values after ≈ are worked out from the molar mass of the structure shown.

Legend:
[1] = Antioxidant activity assessed as inhibition of H2O2 radical scavenging activity incubated for 60 mins by UV-spectrophotometric method; format: functional
[2] = Antioxidant activity assessed as inhibition of H2O2 radical scavenging activity incubated for 60 mins by UV-spectrophotometric method relative to control; format: functional
INS1(832/13) [3] = test: Cytotoxicity against rat INS1(832/13) cells assessed as cell viability at 3.5 nM in RPMI medium incubated for over night followed by insulin addition by Alamar Blue assay; format: cell-based; conditions: 0.0035 µM
INS1(832/13) [4] = test: Cytotoxicity against rat INS1(832/13) cells assessed as cell viability upto 3 nM in RPMI medium incubated for over night followed by insulin addition by Alamar Blue assay; format: cell-based
INS1(832/13) [5] = test: cells; conditions: Rattus norvegicus, INS-1 832/13, 2 h
Description: Antidiabetic activity in glucose-treated rat INS1(832/13) cells assessed as increase in insulin release in presence of 3 mM glucose measured after 2 hrs by radioimmunoassay

INS1(832/13) [6] = test: Antidiabetic activity in glucose-treated rat INS1(832/13) cells assessed as increase in insulin release at 1 ug/ml in presence of 3 mM glucose measured after 2 hrs by radioimmunoassay (reference value: 52.25 +/- 2.15 %); format: functional
INS1(832/13) [7] = test: Antidiabetic activity in glucose-treated rat INS1(832/13) cells assessed as increase in insulin release at 10 ug/ml in presence of 3 mM glucose measured after 2 hrs by radioimmunoassay (reference value: 52.25 +/- 2.15 %); format: functional

In the case of O=C1O[C@H]([C@@H](O)CO)C(O)=C1O [ASCORBIC ACID], the IC50 [1] is reported as 25.3 µg/mL (≈ 144 µM).

In the case of Cc1cccc(-c2nnc3ccc(N4CCN(Cc5ccccc5)CC4)nn23)c1, the inhibition [2] is reported as 86.2% and the IC50 [1] is reported as 13.4 µg/mL (≈ 34.9 µM).

With CCOC(=O)N1CCN(c2ccc3nnc(-c4cccc(C)c4)n3n2)CC1 the Activity (INS1(832/13) [3]) was “Toxic”, the inhibition [2] was 96.8% and the IC50 [1] was 1 µg/mL (≈ 2.73 µM). The Activity (INS1(832/13) [4]) was “Non-Toxic” and the IC50 (INS1(832/13) [5]) was 2.8 nM.

For Cc1cccc(-c2nnc3ccc(N4CCN(C(=O)c5ccccc5)CC4)nn23)c1, the Activity (INS1(832/13) [3]) was “Toxic”, the inhibition [2] was 94.1% and the IC50 [1] was 2.25 µg/mL (≈ 5.65 µM). The Activity (INS1(832/13) [4]) was “Non-Toxic” and the IC50 (INS1(832/13) [5]) was 1.5 nM.

Molecule COc1ccc(N2CCN(c3ccc4nnc(-c5cccc(C)c5)n4n3)CC2)cc1 has an inhibition [2] of 75.6% and an IC50 [1] of 45.9 µg/mL (≈ 115 µM).

Work on Cc1cccc(-c2nnc3ccc(N4CCN(Cc5ccc(F)cc5)CC4)nn23)c1 yielded an inhibition [2] of 91.2%, an IC50 [1] of 2 µg/mL (≈ 4.97 µM) and an IC50 (INS1(832/13) [5]) of 3.9 nM.

Cc1cccc(-c2nnc3ccc(N4CCN(CCN)CC4)nn23)c1 showed an inhibition [2] of 78.2% and an IC50 [1] of 25.4 µg/mL (≈ 75.3 µM).

In the case of CCOc1cc(CC(=O)N[C@@H](CC(C)C)c2ccccc2N2CCCCC2)ccc1C(=O)O [REPAGLINIDE], the “inhibition (INH)” value (INS1(832/13) [6]) is reported as 96.16%, the “inhibition (INH)” value (INS1(832/13) [7]) is reported as 99.05% and the IC50 (INS1(832/13) [5]) is reported as 1250 nM.

Cc1cccc(-c2nnc3ccc(N4CCN(S(C)(=O)=O)CC4)nn23)c1 showed an inhibition [2] of 84.2% and an IC50 [1] of 10.8 µg/mL (≈ 29 µM).

Cc1cccc(-c2nnc3ccc(N4CCN(CCOCCO)CC4)nn23)c1 showed an inhibition [2] of 83.2% and an IC50 [1] of 16.8 µg/mL (≈ 43.9 µM).

With Cc1cccc(-c2nnc3ccc(N4CCN(Cc5ccccc5)C(C(=O)O)C4)nn23)c1 (stereo unspecified) the inhibition [2] was 69.4% and the IC50 [1] was 85.5 µg/mL (≈ 200 µM).

Work on Cc1cccc(-c2nnc3ccc(N4CCN(C(=O)OC(C)(C)C)C(Cc5ccccc5)C4)nn23)c1 (stereo unspecified) yielded an inhibition [2] of 80.1% and an IC50 [1] of 15.8 µg/mL (≈ 32.6 µM).

CC(=O)N1CCN(c2ccc3nnc(-c4cccc(C)c4)n3n2)CC1 showed an inhibition [2] of 78.2% and an IC50 [1] of 28.6 µg/mL (≈ 85 µM).

Work on Cc1cccc(-c2nnc3ccc(N4CCN(C(c5ccccc5)c5ccccc5)CC4)nn23)c1 yielded an inhibition [2] of 93.2%, an IC50 [1] of 1.75 µg/mL (≈ 3.8 µM) and an IC50 (INS1(832/13) [5]) of 4.8 nM.
